{"source": "patent US10189843B2", "about": "“Fused pyrazole derivative having autotaxin inhibitory activity” (The University of Tokyo, priority 2014, dated 2019)", "data": [{"target": "T1, Human autotaxin enzyme (Homo sapiens, UniProt Q13822)", "T1 construct": "purchased R&D System", "test": "Evaluation of autotaxin inhibitor, Method C (18:0 Lyso PC substrate, choline assay, Resorufin fluorescence)", "type": "biochemical", "settings": "Method C (Test Example 3), read-out: Inhibitory activity (enzyme inhibitory activity, IC50)", "method": "Test Example 3 (Method C) Evaluation of Autotaxin Inhibitor\nSolution B containing 100 mM Tris-HCl buffer (pH7.5), 150 mM NaCl, 5 mM MgCl2, and 0.05% Triton X-100 was prepared. Human autotaxin enzyme (purchased from R&D System) was diluted with Solution B, and 2.5 μl of which was added to a solution of test compound in DMSO. Furthermore, 2.5 μl of 200 μM 18:0 Lyso PC (purchased from Avanti Polar Lipids) in Solution B was added and allowed to react at room temperature for 2 hours. After completion of the reaction, 15 μl of the coline assay reagent (100 mM Tris-HCl buffer (pH7.5), 5 mM MgCl2, 77 μg/ml coline oxidase, 10 μg/ml peroxydase, 25 μM 10-acetyl-3,7-dihydroxyphenoxazine, and excess autotaxin inhibitor) was added and allowed to react at room temperature for 20 minutes. The fluorescent dye Resorufin, which was produced by the reaction, was detected. The fluorescence was detected using ViewLux (PerkinElmer, Inc.) with a excitation wavelength of 531 nm and a fluorescence wavelength of 598 nm.\nThe percent inhibition of the test compound was calculated by assuming the sample with no test compound as 0% inhibition and the sample with no enzyme as 100% inhibition, and the percent inhibitions at different concentrations of the test compound were plotted to obtain a concentration-dependent curve.", "units": {"IC50": "nM"}, "values": [{"smiles": "CCCCCC1CN(CC(=O)N2CCCCC2CC(=O)O)C(=O)c2cc(-c3ccc(Cl)cc3)nn21", "note": "(stereo not drawn) [Compound I-0068]", "IC50": "< 10"}, {"smiles": "CCCCCC1CN(CC(=O)N[C@H](C(=O)O)c2ccccc2)C(=O)c2cc(-c3ccc(Cl)cc3)nn21", "note": "(stereo partly drawn) [Compound I-0069]", "IC50": "< 10"}, {"smiles": "CCCCCC1CN(CC(=O)N2CCC[C@H](C(=O)O)C2)C(=O)c2cc(-c3ccc(Cl)cc3)nn21", "note": "(stereo partly drawn) [Compound I-0070]", "IC50": "10 to 100"}, {"smiles": "CCCCCC1CN(CC(=O)N2CCC[C@@H](C)C2)C(=O)c2cc(-c3ccc(Cl)cc3)nn21", "note": "(stereo partly drawn) [Compound I-0071]", "IC50": "100 to 1000"}, {"smiles": "CCCCCC1CN(CC(=O)N2CCCC2Cc2ccccc2)C(=O)c2cc(-c3ccc(Cl)cc3)nn21", "note": "(stereo not drawn) [Compound I-0072]", "IC50": "≥ 1000"}, {"smiles": "CCCCCC1CN(CC(=O)Nc2ccccn2)C(=O)c2cc(-c3ccc(Cl)cc3)nn21", "note": "(stereo not drawn) [Compound I-0073]", "IC50": "≥ 1000"}, {"smiles": "CCCCCC1CN(CC(=O)N2CCC(C)C2)C(=O)c2cc(-c3ccc(Cl)cc3)nn21", "note": "(stereo not drawn) [Compound I-0074]", "IC50": "100 to 1000"}, {"smiles": "CCCCCC1CN(CC(=O)N2CCC[C@@H]2C)C(=O)c2cc(-c3ccc(Cl)cc3)nn21", "note": "(stereo partly drawn) [Compound I-0075]", "IC50": "10 to 100"}, {"smiles": "CCCCCC1CN(CC(=O)N2CCCC[C@H]2C)C(=O)c2cc(-c3ccc(Cl)cc3)nn21", "note": "(stereo partly drawn) [Compound I-0076]", "IC50": "100 to 1000"}, {"smiles": "CCCCCC1CN(CC(=O)N(C)CC)C(=O)c2cc(-c3ccc(Cl)cc3)nn21", "note": "(stereo not drawn) [Compound I-0077]", "IC50": "100 to 1000"}, {"smiles": "CCCCCC1CN(CC(=O)N2CCCC2CCCc2ccccc2)C(=O)c2cc(-c3ccc(Cl)cc3)nn21", "note": "(stereo not drawn) [Compound I-0078]", "IC50": "≥ 1000"}, {"smiles": "CCCCCC1CN(CC(=O)N2CCCC2CCCC)C(=O)c2cc(-c3ccc(Cl)cc3)nn21", "note": "(stereo not drawn) [Compound I-0079]", "IC50": "100 to 1000"}, {"smiles": "CCCCCC1CN(CC(=O)N2CCC[C@H](C)C2)C(=O)c2cc(-c3ccc(Cl)cc3)nn21", "note": "(stereo partly drawn) [Compound I-0080]", "IC50": "10 to 100"}, {"smiles": "CCCCCC1CN(CC(=O)N2CCCC2C)C(=O)c2cc(-c3ccc(Cl)cc3)nn21", "note": "(stereo not drawn) [Compound I-0081]", "IC50": "100 to 1000"}, {"smiles": "CCCCCC1CN(CC(=O)N2CCCC[C@@H]2C)C(=O)c2cc(-c3ccc(Cl)cc3)nn21", "note": "(stereo partly drawn) [Compound I-0082]", "IC50": "10 to 100"}, {"smiles": "CCCCCC1CN(CC(=O)N2CCCCC2)C(=O)c2cc(-c3ccc(Cl)cc3)nn21", "note": "(stereo not drawn) [Compound I-0083]", "IC50": "100 to 1000"}, {"smiles": "CCCCCC1CN(CC(=O)Nc2ccncc2)C(=O)c2cc(-c3ccc(Cl)cc3)nn21", "note": "(stereo not drawn) [Compound I-0084]", "IC50": "≥ 1000"}, {"smiles": "CCCCCC1CN(CC(=O)N(C)c2ccncc2)C(=O)c2cc(-c3ccc(Cl)cc3)nn21", "note": "(stereo not drawn) [Compound I-0085]", "IC50": "≥ 1000"}, {"smiles": "CCCCCC1CN(CC(=O)Nc2cccnc2)C(=O)c2cc(-c3ccc(Cl)cc3)nn21", "note": "(stereo not drawn) [Compound I-0086]", "IC50": "100 to 1000"}, {"smiles": "CCCCCC1CN(CC(=O)Nc2ccccc2)C(=O)c2cc(-c3ccc(Cl)cc3)nn21", "note": "(stereo not drawn) [Compound I-0087]", "IC50": "≥ 1000"}, {"smiles": "CCCCCC1CN(CC(=O)NCCCC)C(=O)c2cc(-c3ccc(Cl)cc3)nn21", "note": "(stereo not drawn) [Compound I-0088]", "IC50": "100 to 1000"}, {"smiles": "CCCCCC1CN(CC(=O)N2CCCC(CO)C2)C(=O)c2cc(-c3ccc(Cl)cc3)nn21", "note": "(stereo not drawn) [Compound I-0089]", "IC50": "10 to 100"}, {"smiles": "CCCCCC1CN(CC(=O)N2CCCCC2CO)C(=O)c2cc(-c3ccc(Cl)cc3)nn21", "note": "(stereo not drawn) [Compound I-0090]", "IC50": "10 to 100"}, {"smiles": "CCCCCC1CN(CC(=O)N2CCCCC2CC)C(=O)c2cc(-c3ccc(Cl)cc3)nn21", "note": "(stereo not drawn) [Compound I-0091]", "IC50": "100 to 1000"}, {"smiles": "CCCCCC1CN(CC(=O)N2CCCC(O)C2)C(=O)c2cc(-c3ccc(Cl)cc3)nn21", "note": "(stereo not drawn) [Compound I-0092]", "IC50": "100 to 1000"}, {"smiles": "CCCCCC1CN(CC(=O)N2CCC(C)CC2)C(=O)c2cc(-c3ccc(Cl)cc3)nn21", "note": "(stereo not drawn) [Compound I-0093]", "IC50": "100 to 1000"}, {"smiles": "CCCCCC1CN(CC(=O)N2CCC(O)CC2)C(=O)c2cc(-c3ccc(Cl)cc3)nn21", "note": "(stereo not drawn) [Compound I-0094]", "IC50": "10 to 100"}, {"smiles": "CCCCCC1CN(CC(=O)N2CCCC(C(N)=O)C2)C(=O)c2cc(-c3ccc(Cl)cc3)nn21", "note": "(stereo not drawn) [Compound I-0095]", "IC50": "10 to 100"}, {"smiles": "CCCCCC1CN(CC(=O)N2CCC(CO)CC2)C(=O)c2cc(-c3ccc(Cl)cc3)nn21", "note": "(stereo not drawn) [Compound I-0096]", "IC50": "100 to 1000"}, {"smiles": "CCCCCC1CN(CC(=O)N2CCCC2)C(=O)c2cc(-c3ccc(Cl)cc3)nn21", "note": "(stereo not drawn) [Compound I-0097]", "IC50": "100 to 1000"}, {"smiles": "CCCCCC1CN(CC(=O)N2CCCCCC2)C(=O)c2cc(-c3ccc(Cl)cc3)nn21", "note": "(stereo not drawn) [Compound I-0098]", "IC50": "100 to 1000"}, {"smiles": "CCCCCC1CN(CC(=O)NCc2ccccc2)C(=O)c2cc(-c3ccc(Cl)cc3)nn21", "note": "(stereo not drawn) [Compound I-0099]", "IC50": "100 to 1000"}, {"smiles": "CCCCCC1CN(CC(=O)N2CCNCC2)C(=O)c2cc(-c3ccc(Cl)cc3)nn21", "note": "(stereo not drawn) [Compound I-0100]", "IC50": "100 to 1000"}, {"smiles": "CCCCCC1CN(CC(=O)N2CCOCC2)C(=O)c2cc(-c3ccc(Cl)cc3)nn21", "note": "(stereo not drawn) [Compound I-0101]", "IC50": "100 to 1000"}, {"smiles": "CCCCCC1CN(CC(=O)N(C)CCN(C)C)C(=O)c2cc(-c3ccc(Cl)cc3)nn21", "note": "(stereo not drawn) [Compound I-0102]", "IC50": "≥ 1000"}, {"smiles": "CCCCCC1CN(CC(=O)NCCN(C)C)C(=O)c2cc(-c3ccc(Cl)cc3)nn21", "note": "(stereo not drawn) [Compound I-0103]", "IC50": "≥ 1000"}, {"smiles": "CCCCCC1CN(CC(=O)NCCCN(C)C)C(=O)c2cc(-c3ccc(Cl)cc3)nn21", "note": "(stereo not drawn) [Compound I-0104]", "IC50": "≥ 1000"}, {"smiles": "CCCCCC1CN(CC(=O)N2CCCCC2c2ccccc2)C(=O)c2cc(-c3ccc(Cl)cc3)nn21", "note": "(stereo not drawn) [Compound I-0105]", "IC50": "100 to 1000"}, {"smiles": "CCCCCC1CN(CC(=O)N2CCCC(c3ccccc3)C2)C(=O)c2cc(-c3ccc(Cl)cc3)nn21", "note": "(stereo not drawn) [Compound I-0106]", "IC50": "100 to 1000"}, {"smiles": "CCCCCC1CN(CC(=O)N2CCCC2c2ccccc2)C(=O)c2cc(-c3ccc(Cl)cc3)nn21", "note": "(stereo not drawn) [Compound I-0107]", "IC50": "100 to 1000"}, {"smiles": "CCCCCC1CN(CC(=O)NCC)C(=O)c2cc(-c3ccc(Cl)cc3)nn21", "note": "(stereo not drawn) [Compound I-0108]", "IC50": "100 to 1000"}, {"smiles": "CCCCCC1CN(CC(=O)N2CCCCC2CCN2CCOCC2)C(=O)c2cc(-c3ccc(Cl)cc3)nn21", "note": "(stereo not drawn) [Compound I-0109]", "IC50": "≥ 1000"}, {"smiles": "CCCCCC1CN(CC(=O)N2CCC(c3ccccc3)C2)C(=O)c2cc(-c3ccc(Cl)cc3)nn21", "note": "(stereo not drawn) [Compound I-0110]", "IC50": "100 to 1000"}, {"smiles": "CCCCCC1CN(CC(=O)N2CCC(N(C)C)CC2)C(=O)c2cc(-c3ccc(Cl)cc3)nn21", "note": "(stereo not drawn) [Compound I-0111]", "IC50": "≥ 1000"}, {"smiles": "CCCCCC1CN(CC(=O)N2CCC(C(N)=O)C2)C(=O)c2cc(-c3ccc(Cl)cc3)nn21", "note": "(stereo not drawn) [Compound I-0112]", "IC50": "100 to 1000"}, {"smiles": "CCCCCC1CN(CC(=O)N2CCC(=O)CC2)C(=O)c2cc(-c3ccc(Cl)cc3)nn21", "note": "(stereo not drawn) [Compound I-0113]", "IC50": "10 to 100"}, {"smiles": "CCCCCC1CN(CC(=O)OCC2CCCCN2)C(=O)c2cc(-c3ccc(Cl)cc3)nn21", "note": "(stereo not drawn) [Compound I-0114]", "IC50": "≥ 1000"}, {"smiles": "CCCCCC1CN(CC(=O)N2CCCC(C)C2)C(=O)c2cc(-c3ccc(Cl)cc3)nn21", "note": "(stereo not drawn) [Compound I-0115]", "IC50": "100 to 1000"}, {"smiles": "CCCCCC1CN(CC(=O)N2CCCCC2C)C(=O)c2cc(-c3ccc(Cl)cc3)nn21", "note": "(stereo not drawn) [Compound I-0116]", "IC50": "10 to 100"}, {"smiles": "CCCCCC1CN(CC(=O)N2CCC[C@H]2C)C(=O)c2cc(-c3ccc(Cl)cc3)nn21", "note": "(stereo partly drawn) [Compound I-0117]", "IC50": "100 to 1000"}, {"smiles": "CCCCCC1CN(CC(=O)N(C)c2ccc(C(=O)O)cc2)C(=O)c2cc(-c3ccc(Cl)cc3)nn21", "note": "(stereo not drawn) [Compound I-0118]", "IC50": "≥ 1000"}, {"smiles": "CCCCCC1CN(CC(=O)NCc2ccccc2C(=O)O)C(=O)c2cc(-c3ccc(Cl)cc3)nn21", "note": "(stereo not drawn) [Compound I-0119]", "IC50": "10 to 100"}, {"smiles": "CCCCCC1CN(Cc2cccc(CC(=O)O)c2)C(=O)c2cc(-c3ccc(Cl)cc3)nn21", "note": "(stereo not drawn) [Compound I-0120]", "IC50": "10 to 100"}, {"smiles": "CCCCCC1CN(Cc2cccc3c(C(=O)O)csc23)C(=O)c2cc(-c3ccc(Cl)cc3)nn21", "note": "(stereo not drawn) [Compound I-0121]", "IC50": "10 to 100"}]}]}
